US11559522B2, “Methods for enhancing liver regeneration” (The Trustees of the University of Pennsylvania, priority 2016, dated 2023)
Entries after “also recorded” stand apart in the source; their conditions may differ.

Assays:
wild-type C57BL/6J mice = experiment: 2/3 partial hepatectomy (PHx) liver regeneration model, NR in the drinking water; type: in vivo, mouse
Source text: (§1) Animals, housing and drug treatment: Mice overexpressing Nampt in hepatocytes were obtained by crossing animals carrying an exogenous copy of the Nampt cDNA separated from the CAGGS promoter by a foxed stop cassette that were backcrossed to the C57BL/6J background (as described previously^7), with mice carrying Albumin-Cre (JAX strain B6.Cg-Tg(Alb-cre)21Mgn/J, stock number 003574). Littermates lacking Albumin Cre were used as controls. For studies on the adult onset of Nampt overexpression, 8-9 week old male Nampt^fl/fl and Nampt^wt/wt mice were injected with adeno-associated virus in the retroorbital plexus expressing either Cre recombinase (AAV-Cre) or enhanced green fluorescent protein (AAV-Gfp) under the control of thyroxine-binding globulin (Tbg) promoter (AAV-Cre). Nampt^fl/fl mice injected with AAV-Gfp and Namp^wt/wt injected with AAV-Cre served as controls. For inducible deletion of Nampt, mice originally created by Oberdan Leo at Université de Liège and backcrossed to the C57/BL6 background were employed and generously provided by Shin-Ichiro Imai at Washington University. As above, 8-9 week old male mice bearing two floxed alleles were injected retroorbitally with adeno-associated virus expressing either Cre recombinase (AAV-Cre) or enhanced green fluorescent protein (AAV-Gfp) under the control of thyroxine-binding globulin (Tbg) promoter. Fasting blood glucose was measured and partial hepatectomies were performed at >14 days after AAV infection in both the adult onset overexpression and liver-specific knock out cohorts. Animals were housed in groups of 4-5 mice/cage in pathogen-free barrier facility in a 12 h light-dark cycle with free access to food and water. For experiments containing only wild type animals, male C57BL/6J mice were ordered directly from Jackson Labs. For nicotinamide riboside (NR) (Chromadex Inc.) supplementation experiments, NR was dissolved in the drinking water at 3.0 mg/ml in light-protected bottles and was changed every 3 days. For fasting and re-feeding experiments, animals were fasted for 16 h with access to water ad libitum in cages containing Alpha-dri bedding. All animal work was performed in accordance with the U.S. Department of Health and Human Services Guide for the Care and Use of Laboratory Animals and with the approval of the University of Pennsylvania Institutional Animal Care and Use Committee.
(§2) Partial hepatectomy: 10-14 week old male transgenic mice underwent partial hepatectomy (PHx) according to the protocol of Mitchell and Willenbring between 8 AM and noon. Briefly, after isofluorane anesthesia, a ventral midline incision was made. Then the median and left lateral lobes, comprising 70% of the liver, were resected by pedicle ligation. For EdU (5-ethynyl-2′-deoxyuridine) labeling (Molecular probes), mice were injected intraperitoneally with the labeling reagent at a dose of 16 mg/kg, 5 h before sacrifice. Animals were sacrificed at 36 h or 48 h after PHx, as indicated. The resected and regenerating livers were snap frozen in liquid nitrogen, fixed in 4% paraformaldehyde, embedded in OCT medium (Tissue-TEK O.C.T compound, Sakura), or rapidly frozen in pre-chilled metal clamps in liquid nitrogen for NAD and ATP assays. All surgical procedures involving mice were approved by the Institutional Animal Care and Use Committee protocols of the University of Pennsylvania.
(§3) Histology, Immunohistochemistry, and Immunofluoresence: Mitotic figures were counted in Hematoxylin and eosin stained slides. Paraffin embedded liver sections of 5 μm thickness were deparaffinized in Xylene followed by rehydration through a graded ethanol series were stained with Gill 3 hematoxylin (Thermo Scientific) and eosin (Sigma). Mitotically active areas were first screened under lower magnification. For quantification, total mitotic counts in 10 high power fields (40×) in the most mitotically active areas were considered. […]

Sirt1 knockout mice = experiment: Partial hepatectomy in Sirt1 knockout mice and littermate controls, with NR; type: in vivo, mouse
Protocol: Partial hepatectomy: 10-14 week old male transgenic mice underwent partial hepatectomy (PHx) according to the protocol of Mitchell and Willenbring between 8 AM and noon. Briefly, after isofluorane anesthesia, a ventral midline incision was made. Then the median and left lateral lobes, comprising 70% of the liver, were resected by pedicle ligation. For EdU (5-ethynyl-2′-deoxyuridine) labeling (Molecular probes), mice were injected intraperitoneally with the labeling reagent at a dose of 16 mg/kg, 5 h before sacrifice. Animals were sacrificed at 36 h or 48 h after PHx, as indicated. The resected and regenerating livers were snap frozen in liquid nitrogen, fixed in 4% paraformaldehyde, embedded in OCT medium (Tissue-TEK O.C.T compound, Sakura), or rapidly frozen in pre-chilled metal clamps in liquid nitrogen for NAD and ATP assays. All surgical procedures involving mice were approved by the Institutional Animal Care and Use Committee protocols of the University of Pennsylvania. Histology, Immunohistochemistry, and Immunofluoresence: Mitotic figures were counted in Hematoxylin and eosin stained slides. Paraffin embedded liver sections of 5 μm thickness were deparaffinized in Xylene followed by rehydration through a graded ethanol series were stained with Gill 3 hematoxylin (Thermo Scientific) and eosin (Sigma). Mitotically active areas were first screened under lower magnification. For quantification, total mitotic counts in 10 high power fields (40×) in the most mitotically active areas were considered. Representative photomicrographs were taken at 400× magnification using a light microscope coupled with a digital image acquisition system. For immunofluorescent detection of Nampt expression in paraffin sections, antigens were retrieved in R-buffer (Electron Microscopy Sciences Ct #62706-10) followed by quenching and blocking in Cas-Block (Invitrogen 00-8120) for 20 min. Slides were then incubated overnight at 4° C. in humidified chamber with primary rabbit polyclonal anti-NAMPT antibody (Bethyl Laboratories, dilution 1:1000). Goat anti-rabbit IgG (Alexa Fluor 488) was used as secondary antibody at dilution of 1:600 and slides were counter-stained with DAPI (Vector laboratories). For quantification, cells were examined and imaged using a Zeiss Axioplan 2 imaging system under a 20× objective taking both the central and portal venous areas. Studies were performed to determine the ability of NR to improve liver regeneration in the context of Sirt1 deletion, which impairs this process. Sirt1 knockouts and littermate controls were treated with NR (500 mgs/Kg/day) for 2 weeks prior to partial hepatectomy (PHx). […] In another assay, liver regeneration during the first 36 hour post PHx was compromised in Sirt1 knockout mice and restored by NR treatment. […]

[1] = tested on: hepatocyte-specific Nampt deficient mice; experiment: Partial hepatectomy in hepatocyte-specific Nampt deficient mice (AAV-Cre) and AAV-Gfp littermate controls, with NR; type: in vivo, mouse; conditions: for Liver regeneration (EdU positive hepatocytes, liver to body weight ratio): first 48 hours after PHx, NR ~500 mg/kg/day
Source text: as §1, §2, §3

hepatocyte = conditions: cited from earlier work
[2] = NR ~500 mg/kg, 48 hours post PHx
[3] = Sirt1 deficient mice, NR 500 mgs/Kg/day for 2 weeks prior to PHx

NC(=O)c1ccc[n+]([C@@H]2O[C@H](CO)[C@@H](O)[C@H]2O)c1 [NR, nicotinamide riboside]
Increase of liver NAD content, pre hepatectomy (wild-type C57BL/6J mice; NR 3 mg/mL in drinking water (~500 mg/kg) for 14 days, pre PHx, vs control mice): ~35% | Increase of liver NAD content, post hepatectomy (wild-type C57BL/6J mice; NR 3 mg/mL in drinking water (~500 mg/kg) from 14 days before PHx, 48 hours post PHx, vs control mice): ~58% | Liver ATP levels (wild-type C57BL/6J mice; NR treated mice, pre or post hepatectomy, regenerating livers): enhanced | Fatty changes (hepatic steatosis, micro and macro vesicular lipid droplets, hepatic triglyceride accumulation) (wild-type C57BL/6J mice; [2]): almost completely absent; also recorded: not evident | Hepatocyte proliferation (incorporation of EdU into DNA) (wild-type C57BL/6J mice; [2]): greatly enhanced | Liver mass (liver to body weight ratio) after PHx (wild-type C57BL/6J mice; [2]): significant improvement | Macroscopic appearance of regenerating livers (wild-type C57BL/6J mice; NR ~500 mg/kg, 48 hours post PHx, control livers pale, mottled): more uniformly colored | Increase in mitotic activity (mitotic figures, H&E stained sections) (wild-type C57BL/6J mice; NR ~500 mg/kg, 48 hours post PHx, vs control): 48% | Hepatic steatosis at 36 hours post-PHx (wild-type C57BL/6J mice; NR-treated mice, 36 hours post-PHx): Some steatosis was visible | Acute hepatic steatosis phenotype (H&E sections) (Sirt1 knockout mice; [3]): partially rescued | Hepatic fatty changes (Sirt1 knockout mice; [3]): attenuated | Liver regeneration during the first 36 hour post PHx (Sirt1 knockout mice; Sirt1 knockout mice): restored | Size of the regenerated livers compared to untreated livers (Sirt1 knockout mice; both wild type and Sirt1 knockout mice, 36 hour post PHx): increase | Mitotic index ([1]; Nampt KO mice, 48 hours after PHx): largely restored | Liver regeneration (EdU positive hepatocytes, liver to body weight ratio) ([1]; Nampt KO mice): restored | Liver regeneration (EdU positive hepatocytes, liver to body weight ratio) ([1]; Nampt KO mice, listed as nicotinamide riboside): completely rescued | Reduction of hepatic triglycerides with NR treatment ([1]; Nampt fl/fl AAV-Cre mice, 48 hours after PHx): ~35% | Petechial hemorrhage / pale regenerated livers (macroscopic) ([1]; Nampt fl/fl AAV-Cre mice, NR ~500 mg/kg/day 2 weeks prior to PHx, 48 hours): prevented | Hepatic fatty changes in NAMPT deficient regenerating livers (histology) ([1]; Nampt fl/fl AAV-Cre, 48 hours after PHx): nearly normalized | Reduction of hepatic triglycerides with NR treatment ([1]; Nampt fl/fl AAV-Gfp mice, 48 hours after PHx): 75% | Liver NAD content ([1]; both genotypes (AAV-Gfp and AAV-Cre), before and after PHx): effectively increased | Hepatic lipid accumulation in regenerating wild type livers (histology) ([1]; wild type (AAV-Gfp control) livers, 48 hours after PHx): abolished

Oc1ccc(/C=C/c2cc(O)cc(O)c2)cc1 [resveratrol]
Hepatocyte replication (hepatocyte): slow | Hepatocyte survival in injury models (hepatocyte): improve
